Patent US20220089575A1, “FARNESOID X RECEPTOR AGONISTS AND USES THEREOF” (Metacrine, Inc., priority 2017, published 2022)

target: T1, hFXR (Homo sapiens, UniProt Q96RI1); test: In Vitro FXR Assay (TK): TK-ECRE-luc reporter in transfected CV-1 cells; format: cell-based; conditions: 18 hrs, luminescence, maximum efficacy of <25% of the Fexarmine control classified as '+'
T1 construct: expressed in transfected cells; host or cells: CV-1 cells
T1 sequence (Q96RI1 1-486): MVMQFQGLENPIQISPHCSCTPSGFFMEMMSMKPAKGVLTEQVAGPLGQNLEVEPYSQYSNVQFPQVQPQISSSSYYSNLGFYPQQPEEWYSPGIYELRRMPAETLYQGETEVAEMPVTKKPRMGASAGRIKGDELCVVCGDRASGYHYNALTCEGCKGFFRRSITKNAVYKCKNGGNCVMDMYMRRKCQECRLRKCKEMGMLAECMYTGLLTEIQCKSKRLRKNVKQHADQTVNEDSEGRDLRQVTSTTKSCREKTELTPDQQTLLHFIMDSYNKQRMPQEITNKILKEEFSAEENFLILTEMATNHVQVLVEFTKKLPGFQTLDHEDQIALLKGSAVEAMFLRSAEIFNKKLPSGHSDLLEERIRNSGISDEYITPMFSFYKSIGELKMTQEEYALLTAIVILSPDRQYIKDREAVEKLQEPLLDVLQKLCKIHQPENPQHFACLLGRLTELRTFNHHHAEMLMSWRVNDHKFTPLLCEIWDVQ
T1 sequence (P19793 1-462 partner): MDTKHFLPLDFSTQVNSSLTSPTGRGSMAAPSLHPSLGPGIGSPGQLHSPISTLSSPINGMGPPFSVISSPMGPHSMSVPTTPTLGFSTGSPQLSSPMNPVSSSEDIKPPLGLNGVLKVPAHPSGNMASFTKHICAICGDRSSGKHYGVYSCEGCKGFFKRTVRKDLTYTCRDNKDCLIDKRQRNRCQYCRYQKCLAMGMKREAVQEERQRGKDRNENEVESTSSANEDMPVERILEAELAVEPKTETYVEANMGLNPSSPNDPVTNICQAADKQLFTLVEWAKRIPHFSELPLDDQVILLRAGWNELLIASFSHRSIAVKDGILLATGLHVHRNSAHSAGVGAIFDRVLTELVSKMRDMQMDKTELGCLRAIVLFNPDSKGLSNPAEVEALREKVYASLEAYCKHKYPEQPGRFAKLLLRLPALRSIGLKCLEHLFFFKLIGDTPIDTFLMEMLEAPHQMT
Description: CV-1 cells were seeded at a density of 2,000,000 cells in a T175 flask with DMEM+10% charcoal double-stripped FBS and incubated at 37° C. in 5% CO2 for 18 h (O/N).
After 18 h of incubation, the medium in the T175 flask was changed with fresh DMEM+10% charcoal super-stripped serum. In a polypropylene tube, 2500 μL OptiMEM (Life Technologies, Cat #31985-062) was combined with expression plasmids for hFXR, hRXR, TK-ECRE-luc and pCMX-YFP. The tube was then briefly vortexed and incubated at room temperature for 5 minutes. Transfection reagent (X-tremeGENE HP from Roche, Cat #06 366 236 001) was added to the OptiMEM/plasmid mixture vortexed and incubated at room temperature for 20 minutes. Following incubation, the transfection reagent/DNA mixture complex was added to cells in the T175 flask and the cells were incubated at 37° C. in 5% CO2 for 18 h (O/N).
Compounds were serially diluted in DMSO and added to transfected CV-1 cells. The cells were then incubated for 18 hrs. The next day cells were lysed and examined for luminescence.

EC50, ≤ 250 nM:
COc1ccc([C@H]2CC[C@H](CN(c3cccc(-c4cnn(C5CC5)c4)c3)C(=O)[C@H]3CC[C@H](OC(=O)NCCN(C)C)CC3)CC2)cc1C [Compound 4.09, trans-4-((3-(1-Cyclopropyl-1H-pyrazol-4-yl)phenyl)((trans-4-(4-methoxy-3-methylphenyl)cyclohexyl)methyl)carbamoyl)cyclohexyl (2-(dimethylamino)ethyl)carbamate]
COc1ccc([C@H]2CC[C@H](CN(c3cccc(-c4cnn(C5CC5)c4)c3)C(=O)[C@H]3CC[C@H](OC(=O)NCCCO)CC3)CC2)cc1C [Compound 4.10, trans-4-((3-(1-Cyclopropyl-1H-pyrazol-4-yl)phenyl)((trans-4-(4-methoxy-3-methylphenyl)cyclohexyl)methyl)carbamoyl)cyclohexyl (3-hydroxypropyl)carbamate]
COc1ccc([C@H]2CC[C@H](CN(c3cccc(-c4cnn(C5CC5)c4)c3)C(=O)[C@H]3CC[C@H](OC(=O)NCCCN(C)C)CC3)CC2)cc1C [Compound 4.11, trans-4-((3-(1-Cyclopropyl-1H-pyrazol-4-yl)phenyl)((trans-4-(4-methoxy-3-methylphenyl)cyclohexyl)methyl)carbamoyl)cyclohexyl (3-(dimethylamino)propyl)carbamate]
CN(C)c1ccc(C23CCC(CN(c4cccc(-c5cnn(C6CC6)c5)c4)C(=O)[C@H]4CC[C@H](OC(=O)NCCO)CC4)(CC2)CC3)cn1 [Compound 4.12, 4-((3-(1-Cyclopropyl-1H-pyrazol-4-yl)phenyl)((4-(6-(dimethylamino)pyridin-3-yl)bicyclo[2.2.2]octan-1-yl)methyl)carbamoyl)cyclohexyl (2-hydroxyethyl)trans-carbamate]
COc1ccc([C@H]2CC[C@H](CN(c3cccc(-c4cnn(C5CC5)c4)c3)C(=O)[C@H]3CC[C@H](OC(=O)NCc4ncc[nH]4)CC3)CC2)cc1C [Compound 4.13, trans-4-((3-(1-Cyclopropyl-1H-pyrazol-4-yl)phenyl)((trans-4-(4-methoxy-3-methylphenyl)cyclohexyl)methyl)carbamoyl)cyclohexyl ((1H-imidazol-2-yl)methyl)carbamate]
COc1ccc([C@H]2CC[C@H](CN(c3cccc(-c4cnn(C5CC5)c4)c3)C(=O)[C@H]3CC[C@H](OC(=O)NCCN(C)C(=O)OC(C)(C)C)CC3)CC2)cc1C [Compound 4.14, tert-Butyl (2-((((trans-4-((3-(1-cyclopropyl-1H-pyrazol-4-yl)phenyl)((trans-4-(4-methoxy-3-methylphenyl)cyclohexyl)methyl)carbamoyl)cyclohexyl)oxy)carbonyl)amino)ethyl)(methyl)carbamate]
COc1ccc([C@H]2CC[C@H](CN(c3cccc(-c4cnn(C5CC5)c4)c3)C(=O)[C@H]3CC[C@H](OC(=O)NCc4c[nH]cn4)CC3)CC2)cc1C [Compound 4.15, trans-4-((3-(1-Cyclopropyl-1H-pyrazol-4-yl)phenyl)((trans-4-(4-methoxy-3-methylphenyl)cyclohexyl)methyl)carbamoyl)cyclohexyl ((1H-imidazol-4-yl)methyl)carbamate]
COc1ccc([C@H]2CC[C@H](CN(c3cccc(-c4cnn(C5CC5)c4)c3)C(=O)[C@H]3CC[C@H](OC(=O)NCCN)CC3)CC2)cc1C [Compound 4.16, trans-4-((3-(1-Cyclopropyl-1H-pyrazol-4-yl)phenyl)((trans-4-(4-methoxy-3-methylphenyl)cyclohexyl)methyl)carbamoyl)cyclohexyl (2-aminoethyl)carbamate]
COc1ccc([C@H]2CC[C@H](CN(c3cccc(-c4cnn(C5CC5)c4)c3)C(=O)[C@H]3CC[C@H](OC(=O)NC4CN(C(=O)OC(C)(C)C)C4)CC3)CC2)cc1C [Compound 4.17, tert-Butyl 3-((((trans-4-((3-(1-cyclopropyl-1H-pyrazol-4-yl)phenyl)((trans-4-(4-methoxy-3-methylphenyl)cyclohexyl)methyl)carbamoyl)cyclohexyl)oxy)carbonyl)amino)azetidine-1-carboxylate]
COc1ccc([C@H]2CC[C@H](CN(c3cccc(-c4cnn(C5CC5)c4)c3)C(=O)[C@H]3CC[C@H](OC(=O)NC4CNC4)CC3)CC2)cc1C [Compound 4.18, trans-4-((3-(1-Cyclopropyl-1H-pyrazol-4-yl)phenyl)((trans-4-(4-methoxy-3-methylphenyl)cyclohexyl)methyl)carbamoyl)cyclohexyl azetidin-3-ylcarbamate]
COc1ccc([C@H]2CC[C@H](CN(c3cc(-c4cnn(C5CC5)c4)ccn3)C(=O)[C@H]3CC[C@H](OC(=O)NCCO)CC3)CC2)cc1C [Compound 4.19, trans-4-((4-(1-Cyclopropyl-1H-pyrazol-4-yl)pyridin-2-yl)((trans-4-(4-methoxy-3-methylphenyl)cyclohexyl)methyl)carbamoyl)cyclohexyl (2-hydroxyethyl)carbamate]
COc1ccc([C@H]2CC[C@H](CN(c3cccc(-c4cnn(C5CC5)c4)c3)C(=O)[C@H]3CC[C@H](OC(=O)NCCCCN(C)C)CC3)CC2)cc1C [Compound 4.20, trans-4-((3-(1-Cyclopropyl-1H-pyrazol-4-yl)phenyl)((trans-4-(4-methoxy-3-methylphenyl)cyclohexyl)methyl)carbamoyl)cyclohexyl (4-(dimethylamino)butyl)carbamate]
COc1ccc([C@H]2CC[C@H](CN(c3cccc(-c4cnn(C5CC5)c4)c3)C(=O)[C@H]3CC[C@H](OC(=O)NCCCCCN(C)C)CC3)CC2)cc1C [Compound 4.21, trans-4-((3-(1-Cyclopropyl-1H-pyrazol-4-yl)phenyl)((trans-4-(4-methoxy-3-methylphenyl)cyclohexyl)methyl)carbamoyl)cyclohexyl (5-(dimethylamino)pentyl)carbamate]
CN(C)c1ccc([C@H]2CC[C@H](CN(c3cccc(-c4coc(C5CC5)n4)c3)C(=O)[C@H]3CC[C@H](OC(=O)NCCO)CC3)CC2)cn1 [Compound 4.22, trans-4-((3-(2-Cyclopropyloxazol-4-yl)phenyl)((trans-4-(6-(dimethylamino)pyridine-3-yl)cyclohexyl)methyl)carbamoyl)cyclohexyl (2-hydroxyethyl)carbamate]
CN(C)c1ccc(C23CCC(CN(c4cccc(-c5coc(C6CC6)n5)c4)C(=O)[C@H]4CC[C@H](OC(=O)NCCO)CC4)(CC2)CC3)cn1 [Compound 4.23, 4-((3-(2-Cyclopropyloxazol-4-yl)phenyl)((4-(6-(dimethylamino)pyridin-3-yl)bicyclo[2.2.2]octan-1-yl)methyl)carbamoyl)cyclohexyl trans-(2-hydroxyethyl)carbamate]
COc1ccc([C@H]2CC[C@H](CN(c3cc(-c4coc(C5CC5)n4)ccn3)C(=O)[C@H]3CC[C@H](OC(=O)NCCO)CC3)CC2)nc1C [Compound 4.24, trans-4-((4-(2-Cyclopropyloxazol-4-yl)pyridine-2-yl)((trans-4-(5-methoxy-6-methylpyridin-2-yl)cyclohexyl)methyl)carbamoyl)cyclohexyl (2-hydroxyethyl)carbamate]
COc1ccc([C@H]2CC[C@H](CN(c3cccc(-c4cnn(C5CC5)c4)c3)C(=O)[C@H]3CC[C@H](OC(=O)N4CC(O)C4)CC3)CC2)cc1C [Compound 4.25, trans-4-((3-(1-Cyclopropyl-1H-pyrazol-4-yl)phenyl)((trans-4-(4-methoxy-3-methylphenyl)cyclohexyl)methyl)carbamoyl)cyclohexyl 3-hydroxyazetidine-1-carboxylate]
